Measured values taken from patent US9169205B2, “Pyrrolidine derivatives, pharmaceutical compositions and uses thereof” (Boehringer Ingelheim International GmbH, priority 2012, dated 2015).

Target: human ACC2 (Homo sapiens (Human), UniProt O00763)
Assay: ACC2 assay (spectrophotometric 384 well assay, NADH-linked kinetic method)
Format: biochemical
Conditions: hACC2 construct lacking 128 N-terminal amino acids, 25° C., 340 nm
Procedure: Spectrophotometric 384 Well Assay
Malonyl CoA formation by acetyl CoA carboxylases is stoichometrically linked to the consumption of ATP. ACC2 activity is measured in a NADH-linked kinetic method measuring ADP generated during the ACC reaction using a coupled lactate dehydrogenase/pyruvate kinase reaction.
The protein is then expressed in insect cells using a baculoviral expression system. Protein purification is performed by anion exchange.
All compounds are dissolved in dimethyl sulfoxide (DMSO) to a concentration of 10 mM.
The enzymatic reaction is then started by addition of a mixture of NADH, acetyl Coenzyme A (both 200 μM f.c.) and ATP (500 uM f.c.). The decrease of the optical density (slope S) is then determined at 25° C. at a wavelength of 340 nm over 15 minutes in a spectrophotometric reader.
Each assay microtiter plate contains wells with vehicle instead of compound as controls for the non-inhibited enzyme (100% CTL; ‘HIGH’) and wells without acetyl-CoA as controls for non-specific NADH degradation (0% CTL; ‘LOW’).

Sequence of human ACC2 (O00763 129-2458): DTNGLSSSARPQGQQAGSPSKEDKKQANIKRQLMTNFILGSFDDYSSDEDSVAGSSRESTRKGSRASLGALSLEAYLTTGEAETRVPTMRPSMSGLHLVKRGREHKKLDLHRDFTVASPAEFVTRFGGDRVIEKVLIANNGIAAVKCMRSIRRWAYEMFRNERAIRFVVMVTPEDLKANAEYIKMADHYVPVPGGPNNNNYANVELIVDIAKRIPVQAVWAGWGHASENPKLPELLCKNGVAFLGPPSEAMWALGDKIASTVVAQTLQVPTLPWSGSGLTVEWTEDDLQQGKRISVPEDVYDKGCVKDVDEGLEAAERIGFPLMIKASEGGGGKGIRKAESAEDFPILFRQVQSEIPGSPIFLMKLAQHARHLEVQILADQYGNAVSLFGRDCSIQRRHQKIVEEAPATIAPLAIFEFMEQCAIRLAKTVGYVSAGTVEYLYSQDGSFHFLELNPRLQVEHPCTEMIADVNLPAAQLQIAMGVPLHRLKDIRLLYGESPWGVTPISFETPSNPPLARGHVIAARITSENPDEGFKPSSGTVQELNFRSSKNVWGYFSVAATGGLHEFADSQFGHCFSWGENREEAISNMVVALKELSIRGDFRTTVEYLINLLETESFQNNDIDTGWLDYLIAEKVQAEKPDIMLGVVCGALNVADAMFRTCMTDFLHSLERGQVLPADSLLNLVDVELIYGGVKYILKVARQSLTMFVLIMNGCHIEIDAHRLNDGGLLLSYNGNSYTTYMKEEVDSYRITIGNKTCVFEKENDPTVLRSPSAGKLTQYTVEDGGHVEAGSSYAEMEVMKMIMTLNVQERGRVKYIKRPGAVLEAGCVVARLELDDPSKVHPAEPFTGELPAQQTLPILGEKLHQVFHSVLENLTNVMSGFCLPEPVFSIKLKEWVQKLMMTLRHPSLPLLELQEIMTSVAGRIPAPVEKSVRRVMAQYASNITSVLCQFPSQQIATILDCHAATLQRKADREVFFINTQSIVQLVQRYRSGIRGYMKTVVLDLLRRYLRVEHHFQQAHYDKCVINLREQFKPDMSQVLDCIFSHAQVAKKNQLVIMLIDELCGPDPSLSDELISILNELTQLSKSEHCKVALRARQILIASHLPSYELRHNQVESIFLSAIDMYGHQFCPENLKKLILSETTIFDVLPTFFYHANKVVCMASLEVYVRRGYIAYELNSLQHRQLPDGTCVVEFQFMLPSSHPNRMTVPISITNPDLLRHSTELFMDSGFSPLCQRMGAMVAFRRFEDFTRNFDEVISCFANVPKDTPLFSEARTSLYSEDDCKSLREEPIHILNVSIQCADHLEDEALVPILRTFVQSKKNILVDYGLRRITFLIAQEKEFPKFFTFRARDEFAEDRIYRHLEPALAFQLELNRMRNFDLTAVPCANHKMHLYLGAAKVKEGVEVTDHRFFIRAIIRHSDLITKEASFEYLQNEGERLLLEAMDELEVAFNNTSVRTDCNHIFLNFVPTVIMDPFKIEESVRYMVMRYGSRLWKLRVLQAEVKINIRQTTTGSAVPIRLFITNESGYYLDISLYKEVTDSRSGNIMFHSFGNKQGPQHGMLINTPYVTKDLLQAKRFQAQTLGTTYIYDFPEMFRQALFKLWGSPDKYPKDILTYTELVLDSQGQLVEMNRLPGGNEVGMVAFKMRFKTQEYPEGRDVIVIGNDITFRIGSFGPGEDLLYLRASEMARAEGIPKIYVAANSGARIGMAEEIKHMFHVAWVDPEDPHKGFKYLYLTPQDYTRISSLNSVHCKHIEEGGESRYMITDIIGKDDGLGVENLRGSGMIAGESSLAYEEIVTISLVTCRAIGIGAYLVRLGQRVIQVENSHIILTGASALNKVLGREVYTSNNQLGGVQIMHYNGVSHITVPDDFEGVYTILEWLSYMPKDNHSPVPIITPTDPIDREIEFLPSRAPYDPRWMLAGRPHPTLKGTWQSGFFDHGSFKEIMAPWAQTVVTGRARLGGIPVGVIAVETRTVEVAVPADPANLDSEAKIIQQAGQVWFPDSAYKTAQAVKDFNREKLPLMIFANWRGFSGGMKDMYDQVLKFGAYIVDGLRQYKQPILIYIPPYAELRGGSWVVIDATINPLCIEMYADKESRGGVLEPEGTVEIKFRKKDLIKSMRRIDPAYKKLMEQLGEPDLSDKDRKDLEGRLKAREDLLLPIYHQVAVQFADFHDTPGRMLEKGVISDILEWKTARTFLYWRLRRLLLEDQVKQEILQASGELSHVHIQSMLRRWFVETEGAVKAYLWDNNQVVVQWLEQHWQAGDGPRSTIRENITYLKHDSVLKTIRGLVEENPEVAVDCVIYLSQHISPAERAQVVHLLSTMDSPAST

SMILES | IC50
CC(=O)N[C@@H](C)c1ccc(OC2CCN(c3ccc4c(c3)OC(F)(F)O4)C2)cc1 (stereo partly drawn) [Example 1.80] | 574 nM
CC(=O)N[C@@H](C)c1ccc(OC2CCN(c3ccc(OCC4(C(F)(F)F)CC4)cc3)C2)cc1 (stereo partly drawn) [Example 1.81] | 804 nM
CC(=O)N[C@@H](C)c1ccc(OC2CCN(c3cc4c(cc3C#N)OCCO4)C2)cc1 (stereo partly drawn) [Example 1.82] | 1480 nM
CC(=O)N[C@@H](C)c1ccc(OC2CCN(c3ccc4c(c3C)OCCO4)C2)cc1 (stereo partly drawn) [Example 1.83] | 350 nM
CC(=O)N[C@@H](C)c1ccc(OC2CCN(c3ccc(OCC4CC4)cc3C)C2)cc1 (stereo partly drawn) [Example 1.84] | 69 nM
CC(=O)N[C@@H](C)c1ccc(OC2CCN(c3ccc(OC(C)C)cc3C)C2)cc1 (stereo partly drawn) [Example 1.85] | 226 nM
CCCOc1ccc(N2CCC(Oc3ccc([C@H](C)NC(C)=O)cc3)C2)c(C)c1 (stereo partly drawn) [Example 1.86] | 65 nM
CC(=O)N[C@@H](C)c1ccc(OC2CCN(c3ccc(OCC(C)(C)F)cc3)C2)cc1 (stereo partly drawn) [Example 1.89] | 224 nM
CC(=O)N[C@@H](C)c1ccc(OC2CCN(c3ccc(OCCC(F)F)cc3)C2)cc1 (stereo partly drawn) [Example 1.90] | 40 nM
COc1cc(F)c(N2CCC(Oc3ccc([C@H](C)NC(C)=O)cc3)C2)cc1F (stereo partly drawn) [Example 1.92] | 384 nM
CC(=O)N[C@@H](C)c1ccc(OC2CCN(c3cc(C(F)F)ccc3F)C2)cc1 (stereo partly drawn) [Example 1.94] | 221 nM
CC(=O)N[C@@H](C)c1ccc(OC2CCN(c3cccc(C(F)F)c3)C2)cc1 (stereo partly drawn) [Example 1.95] | 166 nM
CC(=O)N[C@@H](C)c1ccc(OC2CCN(c3ccc(OCC4CC(F)(F)C4)cc3)C2)cc1 (stereo partly drawn) [Example 1.96] | 61 nM
CC(=O)N[C@@H](C)c1ccc(OC2CCN(c3ccc(O[C@H]4CCOC4)cc3)C2)cc1 (stereo partly drawn) [Example 1.97] | 244 nM
CC(=O)N[C@@H](C)c1ccc(OC2CCN(c3ccc(OCC4CC4(F)F)c(F)c3)C2)cc1 (stereo partly drawn) [Example 1.98] | 64 nM
CC(=O)N[C@@H](C)c1ccc(OC2CCN(c3ccc(OCCC(F)F)cc3)C2)nc1 (stereo partly drawn) [Example 1.102] | 212 nM
CC(=O)N[C@@H](C)c1ccc(OC2CCN(c3ccc(OC4CC4)cc3C)C2)nc1 (stereo partly drawn) [Example 1.103] | 231 nM
CC(=O)N[C@@H](C)c1ccc(O[C@H]2CCN(c3ccc(OC4CC4)cc3C)C2)cc1 [Example 1.104] | 363 nM
CC(=O)Nc1nc(C)c(C(=O)N[C@@H](C)c2ccc(OC3CCN(c4ccc(OCC5CC5)cc4)C3)cc2)s1 (stereo partly drawn) [Example 2.1] | 40 nM
C[C@H](NC(=O)C1CCC(=O)N1)c1ccc(O[C@@H]2CCN(c3ccc(OCC4CC4)cc3)C2)cc1 (stereo partly drawn) [Example 2.2] | 671 nM
C[C@H](NC(=O)Cc1cnccn1)c1ccc(O[C@@H]2CCN(c3ccc(OCC4CC4)cc3)C2)cc1 [Example 2.3] | 399 nM

The remaining lines, values ahead:

IC50 | SMILES
108 nM | CCOc1ccc(N2CCC(Oc3ccc([C@H](C)NC(C)=O)cc3)C2)c(C)c1 (stereo partly drawn) [Example 1.87]
102 nM | CC(=O)N[C@@H](C)c1ccc(OC2CCN(c3ccc(OCCCF)cc3C)C2)cc1 (stereo partly drawn) [Example 1.88]
601 nM | COc1ccc(N2CCC(Oc3ccc([C@H](C)NC(C)=O)cc3)C2)cc1F (stereo partly drawn) [Example 1.93]
383 nM | CCOc1ccc(N2CCC(Oc3ccc([C@H](C)NC(C)=O)cc3)C2)cc1F (stereo partly drawn) [Example 1.99]
87 nM | CC(=O)N[C@@H](C)c1ccc(OC2CCN(c3ccc(OCC4CC4)c(F)c3)C2)cc1 (stereo partly drawn) [Example 1.100]
269 nM | CC(=O)N[C@@H](C)c1ccc(OC2CCN(c3ccc4c(c3)C(C)(C)CO4)C2)cc1 (stereo partly drawn) [Example 1.101]
517 nM | CC(=O)Nc1cccc(C(=O)N[C@@H](C)c2ccc(O[C@@H]3CCN(c4ccc(OCC5CC5)cc4)C3)cc2)c1C [Example 2.4]
800 nM | COc1ccccc1C(=O)N[C@@H](C)c1ccc(O[C@@H]2CCN(c3ccc(OCC4CC4)cc3)C2)cc1 [Example 2.5]
705 nM | CC(=O)N[C@H]1C[C@@H](C(=O)N[C@@H](C)c2ccc(O[C@@H]3CCN(c4ccc(OCC5CC5)cc4)C3)cc2)NC1=O [Example 2.6]
